This is an account of results in ChEMBL document CHEMBL3588745, “Optimization of ADME Properties for Sulfonamides Leading to the Discovery of a T-Type Calcium Channel Blocker, ABT-639” (ACS Med Chem Lett, 2015).

By inhibition is commonly meant the percentage by which the read-out fell short of the control. What is called IC50 is the point on the concentration scale where inhibition reaches its midpoint. One may read the ED50 as the dose at which the effect has come halfway, by size or by number of responders. The term EC50 denotes the midpoint of the concentration-response curve. By solubility is commonly meant how much of the substance goes into solution per volume.

The target of series [1] is T1, Voltage-dependent T-type calcium channel subunit alpha-1H (Homo sapiens, UniProt O95180). The experiment in a line: Inhibition of human recombinant Cav3.2 channel at 10 uM.
T1 sequence (O95180 whole entry): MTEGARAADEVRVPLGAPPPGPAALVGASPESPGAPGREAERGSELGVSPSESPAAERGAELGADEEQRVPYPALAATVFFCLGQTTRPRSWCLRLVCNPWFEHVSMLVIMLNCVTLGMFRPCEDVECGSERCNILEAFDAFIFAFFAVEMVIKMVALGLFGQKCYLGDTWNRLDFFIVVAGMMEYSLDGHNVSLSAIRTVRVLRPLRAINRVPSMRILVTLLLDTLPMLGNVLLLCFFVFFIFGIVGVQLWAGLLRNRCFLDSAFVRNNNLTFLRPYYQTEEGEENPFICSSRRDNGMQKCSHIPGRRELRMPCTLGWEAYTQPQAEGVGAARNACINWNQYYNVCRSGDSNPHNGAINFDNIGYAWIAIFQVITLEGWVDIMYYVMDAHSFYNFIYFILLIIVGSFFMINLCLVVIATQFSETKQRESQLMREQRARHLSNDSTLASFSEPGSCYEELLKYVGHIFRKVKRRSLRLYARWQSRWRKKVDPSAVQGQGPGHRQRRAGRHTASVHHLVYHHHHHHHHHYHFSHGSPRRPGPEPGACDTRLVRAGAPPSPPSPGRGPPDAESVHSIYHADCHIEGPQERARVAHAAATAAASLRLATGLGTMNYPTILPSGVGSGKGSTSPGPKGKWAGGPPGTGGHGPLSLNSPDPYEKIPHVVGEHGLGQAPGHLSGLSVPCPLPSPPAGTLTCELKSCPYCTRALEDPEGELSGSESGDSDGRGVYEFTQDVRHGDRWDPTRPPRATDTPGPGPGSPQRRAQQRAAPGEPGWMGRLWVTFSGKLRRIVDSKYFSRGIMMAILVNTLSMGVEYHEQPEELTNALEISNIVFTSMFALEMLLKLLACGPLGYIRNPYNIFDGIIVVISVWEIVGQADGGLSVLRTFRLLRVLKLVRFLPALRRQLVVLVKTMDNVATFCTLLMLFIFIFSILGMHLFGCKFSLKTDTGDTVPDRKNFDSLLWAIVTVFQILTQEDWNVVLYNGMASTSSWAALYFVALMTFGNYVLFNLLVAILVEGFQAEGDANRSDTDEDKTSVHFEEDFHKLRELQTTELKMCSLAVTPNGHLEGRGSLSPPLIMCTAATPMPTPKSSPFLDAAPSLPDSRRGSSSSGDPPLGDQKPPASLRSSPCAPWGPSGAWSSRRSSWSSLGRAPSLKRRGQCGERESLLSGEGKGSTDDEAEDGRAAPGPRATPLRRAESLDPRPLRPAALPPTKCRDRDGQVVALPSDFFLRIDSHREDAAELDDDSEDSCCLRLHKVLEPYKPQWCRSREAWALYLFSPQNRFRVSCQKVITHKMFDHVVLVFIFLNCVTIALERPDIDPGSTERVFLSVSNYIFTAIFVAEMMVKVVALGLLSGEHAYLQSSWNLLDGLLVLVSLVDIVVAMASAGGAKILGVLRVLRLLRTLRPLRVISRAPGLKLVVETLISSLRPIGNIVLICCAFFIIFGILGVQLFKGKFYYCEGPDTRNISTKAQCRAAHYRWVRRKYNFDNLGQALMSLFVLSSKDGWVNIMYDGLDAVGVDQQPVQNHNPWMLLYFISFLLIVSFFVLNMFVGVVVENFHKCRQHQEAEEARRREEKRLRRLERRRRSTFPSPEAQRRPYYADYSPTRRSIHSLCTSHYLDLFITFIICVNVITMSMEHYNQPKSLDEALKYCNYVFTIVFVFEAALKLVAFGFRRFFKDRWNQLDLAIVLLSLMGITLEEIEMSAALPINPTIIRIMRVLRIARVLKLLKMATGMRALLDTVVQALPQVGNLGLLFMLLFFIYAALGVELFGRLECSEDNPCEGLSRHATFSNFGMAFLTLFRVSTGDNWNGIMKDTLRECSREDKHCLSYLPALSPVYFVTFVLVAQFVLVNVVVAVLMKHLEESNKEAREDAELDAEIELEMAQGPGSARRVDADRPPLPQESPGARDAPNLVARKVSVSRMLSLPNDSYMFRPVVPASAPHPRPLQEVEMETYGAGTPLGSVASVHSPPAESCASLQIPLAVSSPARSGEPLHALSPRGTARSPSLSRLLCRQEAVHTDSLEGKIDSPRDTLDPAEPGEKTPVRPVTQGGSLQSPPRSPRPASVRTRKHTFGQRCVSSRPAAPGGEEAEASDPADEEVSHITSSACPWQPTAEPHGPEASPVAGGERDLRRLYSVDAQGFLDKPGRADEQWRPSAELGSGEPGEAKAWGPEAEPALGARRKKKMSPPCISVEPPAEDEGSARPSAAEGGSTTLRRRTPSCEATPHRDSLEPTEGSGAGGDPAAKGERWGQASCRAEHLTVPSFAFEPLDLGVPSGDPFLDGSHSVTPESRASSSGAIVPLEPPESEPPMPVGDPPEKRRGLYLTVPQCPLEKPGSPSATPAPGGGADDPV
The nature of series [2]: Plasma clearance in rat at 5 uM/kg, iv or 30 uM/kg, po. Format: ADME, organism-based.
Series [3] is described as follows: Stability in human liver microsomes assessed as compound remaining at 1 uM after 30 mins. As to conditions: read-out: Stability. Format: ADME.
A short description of series [4]: Stability in rat liver microsomes assessed as compound remaining at 1 uM after 30 mins. Format: ADME. To be noted: read-out: Stability. For orientation: Microsomes from liver hold many membrane-bound enzymes, among them those of drug oxidation.
Series [5] deals with Rattus norvegicus. Put plainly: Antinociceptive activity in Sprague-Dawley rat model of capsaicin-induced secondary mechanical hyperalgesia model assessed as attenuation of nociception at 500 uM/kg, ip administered 1 hr before behavioral testing by von Frey filaments test. Format: functional, organism-based.
Series [6] can be described thus: Terminal phase volume of distribution in rat at 5 uM/kg, iv or 30 uM/kg, po. Format: ADME, organism-based. As to conditions: in vivo, read-out: Vbeta.
Series [7] deals with Rattus norvegicus. Put plainly: Cardiovascular toxicity in Sprague-Dawley rat at 30 mg/kg, iv assessed as induction of changes in left ventricular contractility. Format: organism-based, Heart left ventricle. To be noted: in vivo.
The test system of series [8] is Rattus norvegicus. The experiment in a line: Cardiovascular toxicity in Sprague-Dawley rat at 30 mg/kg, iv assessed as induction of changes in vascular resistance. Format: organism-based. To be noted: in vivo.
The nature of series [9]: Protein binding in human. Format: ADME, organism-based. To be noted: plasma, read-out: PB (converted).
Series [10] has as its target T1, Voltage-dependent T-type calcium channel subunit alpha-1H. Put plainly: Inhibition of human recombinant Cav3.2 channel.
For series [11], the system named is Rattus norvegicus. Put plainly: Toxicity in orally dosed Sprague-Dawley rat assessed effect on animal balance by Edge test. As to conditions: in vivo, po. Format: organism-based.
For series [12], the system named is Rattus norvegicus. Put plainly: Cardiovascular toxicity in Sprague-Dawley rat at 30 mg/kg, iv assessed as induction of changes in heart rate. Format: organism-based. To be noted: in vivo.
Series [13] can be described thus: Stability in dog liver microsomes assessed as compound remaining at 1 uM after 30 mins. Format: ADME, Canis lupus familiaris. As to conditions: read-out: Stability.
Series [14] deals with Rattus norvegicus. Put plainly: Antinociceptive activity in Sprague-Dawley rat model of capsaicin-induced secondary mechanical hyperalgesia model assessed as attenuation of nociception at 3 to 100 mg/kg, po administered 1 hr before behavioral testing by von Frey filaments test. Format: functional, organism-based.
The target in series [15] is T2, Nuclear receptor subfamily 1 group I member 2 (Homo sapiens, UniProt O75469).
T2 sequence (O75469 whole entry): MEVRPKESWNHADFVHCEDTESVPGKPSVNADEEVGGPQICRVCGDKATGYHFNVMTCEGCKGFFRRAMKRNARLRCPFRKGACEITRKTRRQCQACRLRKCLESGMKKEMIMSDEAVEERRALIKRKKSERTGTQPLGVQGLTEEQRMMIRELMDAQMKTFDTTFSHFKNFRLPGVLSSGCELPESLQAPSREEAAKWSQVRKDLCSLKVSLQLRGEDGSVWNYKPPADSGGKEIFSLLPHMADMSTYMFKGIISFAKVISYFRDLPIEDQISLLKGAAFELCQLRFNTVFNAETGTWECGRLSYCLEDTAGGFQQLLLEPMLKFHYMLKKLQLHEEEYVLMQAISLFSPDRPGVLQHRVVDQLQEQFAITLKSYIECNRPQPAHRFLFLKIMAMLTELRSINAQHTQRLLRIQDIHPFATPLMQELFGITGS
Put plainly: Activation of PXR (unknown origin) assessed as induction of CYP3A4. Format: ADME.

In series [16] the target is Voltage-dependent T-type calcium channel subunit alpha-1H (Rattus norvegicus, UniProt Q9EQ60). Put plainly: Inhibition of Cav3.2 channel in rat DRG neurons assessed as reduction in LVA currents.
Voltage-dependent T-type calcium channel subunit alpha-1H (Rattus norvegicus, UniProt Q9EQ60), sequence (Q9EQ60 whole entry): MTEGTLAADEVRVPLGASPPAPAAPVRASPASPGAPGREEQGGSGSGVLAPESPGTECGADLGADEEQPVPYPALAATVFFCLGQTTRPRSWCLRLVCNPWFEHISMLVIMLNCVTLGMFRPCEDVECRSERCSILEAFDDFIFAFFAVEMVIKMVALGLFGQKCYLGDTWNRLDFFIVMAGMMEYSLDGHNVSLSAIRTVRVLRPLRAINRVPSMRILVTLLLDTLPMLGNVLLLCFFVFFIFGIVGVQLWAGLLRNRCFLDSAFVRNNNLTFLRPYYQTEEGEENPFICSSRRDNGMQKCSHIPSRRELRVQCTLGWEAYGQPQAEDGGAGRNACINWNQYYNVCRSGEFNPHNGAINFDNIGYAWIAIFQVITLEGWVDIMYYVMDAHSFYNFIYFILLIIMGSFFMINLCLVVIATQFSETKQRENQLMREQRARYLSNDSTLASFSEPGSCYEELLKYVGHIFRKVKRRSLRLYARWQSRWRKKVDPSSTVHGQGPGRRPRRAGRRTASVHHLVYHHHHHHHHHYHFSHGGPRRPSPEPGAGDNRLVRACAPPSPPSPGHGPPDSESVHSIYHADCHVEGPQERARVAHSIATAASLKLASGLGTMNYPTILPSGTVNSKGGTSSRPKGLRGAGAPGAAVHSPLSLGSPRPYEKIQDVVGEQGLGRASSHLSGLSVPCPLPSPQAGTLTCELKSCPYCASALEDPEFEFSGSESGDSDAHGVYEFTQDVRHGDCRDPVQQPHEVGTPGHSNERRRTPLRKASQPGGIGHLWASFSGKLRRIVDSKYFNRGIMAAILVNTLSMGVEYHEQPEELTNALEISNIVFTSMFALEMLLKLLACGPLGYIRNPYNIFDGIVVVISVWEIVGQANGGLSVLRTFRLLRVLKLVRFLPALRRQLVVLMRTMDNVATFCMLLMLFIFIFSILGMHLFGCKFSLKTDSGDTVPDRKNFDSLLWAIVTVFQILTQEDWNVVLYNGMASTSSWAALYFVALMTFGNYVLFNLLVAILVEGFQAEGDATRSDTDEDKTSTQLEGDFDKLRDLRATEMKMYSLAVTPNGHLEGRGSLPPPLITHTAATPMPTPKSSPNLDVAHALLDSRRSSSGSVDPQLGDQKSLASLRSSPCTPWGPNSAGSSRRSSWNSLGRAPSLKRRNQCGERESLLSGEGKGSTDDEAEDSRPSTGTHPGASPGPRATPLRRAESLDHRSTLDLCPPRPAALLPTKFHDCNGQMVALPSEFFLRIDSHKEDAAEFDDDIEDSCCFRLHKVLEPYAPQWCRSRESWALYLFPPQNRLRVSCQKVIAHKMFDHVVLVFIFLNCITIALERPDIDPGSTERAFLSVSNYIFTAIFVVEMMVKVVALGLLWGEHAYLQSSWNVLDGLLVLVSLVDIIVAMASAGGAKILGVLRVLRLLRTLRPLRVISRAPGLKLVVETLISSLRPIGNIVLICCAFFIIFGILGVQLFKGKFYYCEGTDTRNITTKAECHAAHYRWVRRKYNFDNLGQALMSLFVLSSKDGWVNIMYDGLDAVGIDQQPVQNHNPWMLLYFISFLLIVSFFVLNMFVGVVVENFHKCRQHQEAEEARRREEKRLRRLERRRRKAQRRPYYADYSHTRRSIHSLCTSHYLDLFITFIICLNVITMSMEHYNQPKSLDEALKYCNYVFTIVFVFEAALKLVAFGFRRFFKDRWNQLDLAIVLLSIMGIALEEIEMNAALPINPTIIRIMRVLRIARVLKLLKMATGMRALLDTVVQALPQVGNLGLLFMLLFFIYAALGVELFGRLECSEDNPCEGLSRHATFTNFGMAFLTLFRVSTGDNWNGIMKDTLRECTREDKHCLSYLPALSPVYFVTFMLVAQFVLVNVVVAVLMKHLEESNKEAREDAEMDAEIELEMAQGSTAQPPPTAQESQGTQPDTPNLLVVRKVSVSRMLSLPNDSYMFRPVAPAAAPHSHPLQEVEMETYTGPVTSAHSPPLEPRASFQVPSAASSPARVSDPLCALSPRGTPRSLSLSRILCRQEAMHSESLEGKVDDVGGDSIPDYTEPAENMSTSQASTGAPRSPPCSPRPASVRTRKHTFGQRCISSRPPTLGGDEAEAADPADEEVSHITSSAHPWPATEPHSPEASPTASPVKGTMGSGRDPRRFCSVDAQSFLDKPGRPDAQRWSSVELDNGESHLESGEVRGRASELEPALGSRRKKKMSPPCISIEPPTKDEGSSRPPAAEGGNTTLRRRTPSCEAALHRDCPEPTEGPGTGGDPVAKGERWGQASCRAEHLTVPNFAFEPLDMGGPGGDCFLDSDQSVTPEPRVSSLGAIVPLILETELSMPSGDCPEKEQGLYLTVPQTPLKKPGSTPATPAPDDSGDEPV
Series [17] can be described thus: Solubility in 0.1 HCl solution. Format: physicochemical.
Series [18] has as its target T3, Aryl hydrocarbon receptor (Homo sapiens, UniProt P35869).
T3 sequence (P35869 whole entry): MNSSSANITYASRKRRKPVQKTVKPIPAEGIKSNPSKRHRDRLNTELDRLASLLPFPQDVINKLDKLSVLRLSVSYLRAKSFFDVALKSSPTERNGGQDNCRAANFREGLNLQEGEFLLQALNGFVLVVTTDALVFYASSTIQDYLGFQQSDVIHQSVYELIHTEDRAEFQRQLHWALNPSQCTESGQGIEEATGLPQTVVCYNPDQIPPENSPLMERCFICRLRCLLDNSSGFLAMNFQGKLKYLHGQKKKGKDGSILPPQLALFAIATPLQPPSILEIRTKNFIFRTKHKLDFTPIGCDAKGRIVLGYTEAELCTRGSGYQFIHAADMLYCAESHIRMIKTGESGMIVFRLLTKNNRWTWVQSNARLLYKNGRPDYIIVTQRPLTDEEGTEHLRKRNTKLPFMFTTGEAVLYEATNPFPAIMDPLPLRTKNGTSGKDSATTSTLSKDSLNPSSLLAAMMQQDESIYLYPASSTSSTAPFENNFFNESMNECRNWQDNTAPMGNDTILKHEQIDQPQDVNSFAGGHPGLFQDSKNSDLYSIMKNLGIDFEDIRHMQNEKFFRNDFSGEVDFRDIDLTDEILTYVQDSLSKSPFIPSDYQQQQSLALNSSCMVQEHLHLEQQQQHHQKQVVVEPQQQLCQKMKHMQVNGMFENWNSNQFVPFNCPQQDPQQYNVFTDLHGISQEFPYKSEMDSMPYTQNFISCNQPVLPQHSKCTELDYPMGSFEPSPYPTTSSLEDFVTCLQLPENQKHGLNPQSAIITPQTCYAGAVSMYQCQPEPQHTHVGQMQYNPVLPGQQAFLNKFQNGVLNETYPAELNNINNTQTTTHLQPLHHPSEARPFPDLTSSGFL
Put plainly: Activation of aryl hydrocarbon receptor (unknown origin) assessed as induction of CYP1A2 mRNA expression. Format: ADME.

The nature of series [19]: Aqueous solubility in phosphate buffer at pH 7.4. Format: physicochemical.
For series [20], the system named is Rattus norvegicus. Put plainly: Cardiovascular toxicity in Sprague-Dawley rat at 30 mg/kg, iv assessed as induction of changes in mean arterial pressure. Format: organism-based, Artery. As to conditions: in vivo.
The nature of series [21]: Protein binding in rat. Format: ADME, organism-based. To be noted: plasma, read-out: PB (converted).
The test system of series [22] is Rattus norvegicus. The experiment in a line: Toxicity in orally dosed Sprague-Dawley rat assessed effect on animal motor performance by Edge test. To be noted: in vivo, po. Format: organism-based.
The subject of series [23] is Plasma. Put plainly: Plasma concentration in Sprague-Dawley rat at 30 mg/kg, iv. Format: ADME, organism-based. As to conditions: in vivo.
The nature of series [24]: Stability in monkey liver microsomes assessed as compound remaining at 1 uM after 30 mins. Format: ADME, Macaca mulatta. As to conditions: rhesus monkey, read-out: Stability.

SMILES strings stand for the structures. Several values for one entry are separate records, joined by “and”; a condition that tells them apart may be missing. Equal values may be shown once. Activity calls are given as the source filed them. The rule behind the calls is not given here.

On to `O=C(c1cccc(S(=O)(=O)Nc2ccccc2Cl)c1)N1CCN2CCC[C@@H]2C1`, for which the inhibition in [1] is less than 30%. The clearance in series [2] was 32.2 mL/min/kg.

As to `CN(c1ccccc1F)S(=O)(=O)c1cc(C(=O)N2CCN3CCC[C@@H]3C2)c(Cl)cc1F`, the remaining at 0.5 h, 1 µM in [3] is less than 0.01%; in series [4], 0.04%.

As for `NCC1(CC(=O)O)CCCCC1`, the outcome in series [5] was Active.

On to `C[C@@H]1CN(C(=O)c2cccc(S(=O)(=O)Nc3ccc(F)cc3)c2)C[C@H](C)O1`, for which the Vd at 5 µmol/kg in series [6] was found to be 0.75 L/kg. In addition, in series [2], the clearance was 27.7 mL/min/kg. Also, in [4], the remaining at 0.5 h, 1 µM turned out to be 46%.

Consider `O=C(c1cccc(S(=O)(=O)Nc2ccccc2C(F)(F)F)c1)N1CCN2CCC[C@@H]2C1`, for which the inhibition in [1] is less than 30%. The compound further had a clearance in [2] of 12.3 mL/min/kg.

`Cl.O=C(c1cc(S(=O)(=O)Nc2ccccc2F)c(F)cc1Cl)N1CCN2CCC[C@@H]2C1`: the Activity entry in series [7] is “Non-toxic”; in series [8], “Non-toxic”; in [12], “Non-toxic”; in series [14], “Dose-dependent effect”; in series [20], “Non-toxic”. For the same compound, the values for the fraction unbound in series [9] and in series [21] were 0.148 and 0.111, respectively. Also, the IC50 in [10] stood at 2.3 µM; in series [16], 7.6 µM. The remaining at 0.5 h, 1 µM in series [3] was 95%; in [13] it was 100%; in series [4] it was 81%; in series [24], 88%. The 50% effective dose (ED50) in series [11] was > 300 mg kg-1 and 114 ug ml-1; in [22], > 300 mg kg-1 and 114 ug ml-1. In [6], the Vd at 5 µmol/kg turned out to be 2.7 L/kg. Further, in series [2], the clearance is 9.17 mL/min/kg. Besides, the half-maximal effective concentration (EC50) in series [15] and in series [18] was more than 10 µM in each case. Further, the solubility in series [17] is more than 9500 µM; in [19], 489 µM. The Cp in series [23] came to 43900 ng/mL.

As to `O=C(c1cccc(S(=O)(=O)Nc2ccc(C(F)(F)F)cc2)c1)N1CCN2CCC[C@H]2C1`, in series [1], the inhibition was less than 30%. In [2], this compound had a clearance of 13.5 mL/min/kg.

In the case of `O=C(c1cccc(S(=O)(=O)Nc2c(F)cccc2F)c1)N1CCN2CCC[C@@H]2C1`, the inhibition in [1] was less than 30%. The same compound gave a clearance in series [2] of 15.3 mL/min/kg.

`O=C(c1cccc(S(=O)(=O)Nc2ccccc2F)c1)N1CCN2CCC[C@@H]2C1`: in [6], the Vd at 5 µmol/kg came to 0.65 L/kg. Further, in [2], the clearance is 29.8 mL/min/kg. Besides, the remaining at 0.5 h, 1 µM in series [4] is 68%.

For the compound `O=C(c1cc(S(=O)(=O)Nc2ccccc2F)c(Cl)cc1Cl)N1CCN2CCC[C@@H]2C1`, in series [10], the half-maximal inhibitory concentration (IC50) was found to be 19 µM.

Regarding `O=C(c1cccc(S(=O)(=O)Nc2cccc(F)c2F)c1)N1CCN2CCC[C@H]2C1`, in series [1], the inhibition was less than 30%. In addition, the clearance in [2] was 38 mL/min/kg.

For the compound `O=C(c1cccc(S(=O)(=O)Nc2cccc(F)c2F)c1)N1CCN2CCC[C@@H]2C1`, in series [1], the inhibition is less than 30%. In series [2], this compound gave a clearance of 20.2 mL/min/kg.

On to `O=C(c1cccc(S(=O)(=O)Nc2ccccc2F)c1)N1CCN2CCC[C@H]2C1`, for which, in series [1], the inhibition is less than 30%. The compound also had a clearance in series [2] of 56 mL/min/kg.

As to `O=C(c1cccc(S(=O)(=O)Nc2ccc(C(F)(F)F)cc2)c1)N1CCN2CCC[C@@H]2C1`, the inhibition in series [1] is less than 30%. The same compound gave a clearance in [2] of 7.5 mL/min/kg.

For `CC1Cc2ccccc2N1S(=O)(=O)c1cccc(C(=O)NCC2CCCCC2)c1` (configuration not stated), in [10], the half-maximal inhibitory concentration (IC50) is 5 µM. Moreover, the remaining at 0.5 h, 1 µM in [4] is 0.1%.

With `CC1CC(C)CN(C(=O)c2cccc(S(=O)(=O)N3c4ccccc4CC3C)c2)C1` (configuration not stated), in series [10], the half-inhibitory concentration (IC50) was found to be 3 µM. Besides, the remaining at 0.5 h, 1 µM in [4] was 0.3%.
